Data taken from patent US20080026996A1, “Selective Vpac2 Receptor Reptide Agonists” (ELI LILLY AND COMPANY, priority 2004, published 2008).
Where a SMILES comes first, the peptide text is derived from it. Where no end group is shown, it is not given here. The star is where a group is joined. Hexanoyl = CCCCCC(=O)*

Assays:
human VPAC2 [1] = molecular target: T1, human VPAC2 (Homo sapiens, UniProt P41587); experiment: Alpha screen cAMP in vitro potency, human VPAC2 receptor; type: cell-based; conditions: cAMP generation; single result from two analyses performed in a single run; read-out: Human VPAC2 Receptor: Alpha Screen EC50
T1 construct: expressed in transfected cells
T1 sequence (P41587 24-438): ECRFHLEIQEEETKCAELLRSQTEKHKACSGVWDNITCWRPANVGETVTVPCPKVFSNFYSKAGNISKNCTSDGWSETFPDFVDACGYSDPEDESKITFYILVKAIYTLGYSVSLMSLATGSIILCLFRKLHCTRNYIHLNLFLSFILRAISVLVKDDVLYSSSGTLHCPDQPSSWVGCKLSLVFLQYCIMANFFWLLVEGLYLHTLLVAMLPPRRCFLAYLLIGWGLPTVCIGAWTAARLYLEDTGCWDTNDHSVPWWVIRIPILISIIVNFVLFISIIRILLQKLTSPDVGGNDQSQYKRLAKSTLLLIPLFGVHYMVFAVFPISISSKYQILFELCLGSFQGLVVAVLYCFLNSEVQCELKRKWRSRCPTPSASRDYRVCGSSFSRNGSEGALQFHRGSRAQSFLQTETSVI
Procedure: Alpha screen: Cells are washed in the culture flask once with PBS. Then, the cells are rinsed with enzyme free dissociation buffer. The dissociated cells are removed. The cells are then spun down and washed in stimulation buffer. For each data point, 50,000 cells suspended in stimulation buffer are used. To this buffer, Alpha screen acceptor beads are added along with the stimuli. This mixture is incubated for 60 minutes. Lysis buffer and Alpha screen donor beads are added and are incubated for 60 to 120 minutes. The Alpha screen signal (indicative of intracellular cAMP levels) is read in a suitable instrument (e.g. AlphaQuest from Perkin-Elmer). Steps including Alpha screen donor and acceptor beads are performed in reduced light.

human VPAC2 [2] = molecular target: T1, human VPAC2; experiment: Filter binding assay, membranes of stable VPAC2 cell line, 125I-labeled VIP tracer (Table 2); conditions: read-out: Human VPAC2 Receptor Binding
Procedure: (§1) For this assay, the solutions and equipment include:
(§2) Presoak solution: 0.5% Polyethyleneamine in Aqua dest.
(§3) Buffer for flushing filter plates: 25 mM HEPES pH 7.4
(§4) Blocking buffer: 25 mM HEPES pH 7.4; 0.2% protease free BSA
(§5) Assay buffer: 25 mM HEPES pH 7.4; 0.5% protease free BSA
(§6) Dilution and assay plate: PS-Microplate, U form
(§7) Filtration Plate Multiscreen FB Opaque Plate; […] Type B Glasfiber filter
(§8) In order to prepare the filter plates, aspirate the presoak solution by vacuum filtration. Flush the plates twice with 200 μL flush buffer. Add 200 μL blocking buffer to the filter plate. The filter plate is then incubated […] for 1 hour at room temperature.
(§9) Fill the assay plate with 25 μL assay buffer, 25 μL membranes (2.5 μg) suspended in assay buffer, 25 μL compound (agonist) in assay buffer, and 25 μL tracer (about 40000 cpm) in assay buffer. Incubate the filled plate for 1 hour with shaking.
(§10) Conduct the transfer from assay plate to filter plate. Aspirate the blocking buffer by vacuum filtration and wash two times with flush buffer. Transfer 90 μL from the assay plate to the filter plate. Aspirate the 90 μL transferred from assay plate and wash three times with 200 μL flush buffer. Remove the plastic support. Dry for 1 hour at 60° C. Add 30 μL Microscint. Perform the count.

human VPAC1 = molecular target: T2, human VPAC1 (Homo sapiens, UniProt P32241); experiment: Filter binding assay, membranes of cells transiently transfected with human VPAC1, 125I-labeled VIP tracer (Table 2); design: expressed in transfected cells; conditions: read-out: Human VPAC1 Receptor Binding
T2 sequence (P32241 31-457): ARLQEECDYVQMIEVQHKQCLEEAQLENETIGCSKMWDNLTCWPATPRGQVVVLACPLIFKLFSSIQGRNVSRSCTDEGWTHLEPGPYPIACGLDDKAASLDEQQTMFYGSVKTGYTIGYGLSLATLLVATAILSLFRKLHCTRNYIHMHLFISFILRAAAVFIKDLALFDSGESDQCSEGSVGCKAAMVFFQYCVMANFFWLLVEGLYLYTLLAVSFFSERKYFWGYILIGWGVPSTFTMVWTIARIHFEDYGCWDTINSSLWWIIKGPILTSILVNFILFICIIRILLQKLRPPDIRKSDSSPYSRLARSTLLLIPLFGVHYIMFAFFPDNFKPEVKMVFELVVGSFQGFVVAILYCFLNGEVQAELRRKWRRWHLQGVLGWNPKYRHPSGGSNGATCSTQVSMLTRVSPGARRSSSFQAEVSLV
Procedure: as §1, §2, §3, §4, §5, §6, §7, §8, §9, §10

human PAC1 = molecular target: T3, human PAC1 (Homo sapiens, UniProt P41586); experiment: Filter binding assay, membranes of cells transiently transfected with human PAC1, 125I-labeled PACAP-27 tracer (Table 2); design: expressed in transfected cells; conditions: read-out: Human PAC1 Receptor Binding
T3 sequence (P41586 21-468): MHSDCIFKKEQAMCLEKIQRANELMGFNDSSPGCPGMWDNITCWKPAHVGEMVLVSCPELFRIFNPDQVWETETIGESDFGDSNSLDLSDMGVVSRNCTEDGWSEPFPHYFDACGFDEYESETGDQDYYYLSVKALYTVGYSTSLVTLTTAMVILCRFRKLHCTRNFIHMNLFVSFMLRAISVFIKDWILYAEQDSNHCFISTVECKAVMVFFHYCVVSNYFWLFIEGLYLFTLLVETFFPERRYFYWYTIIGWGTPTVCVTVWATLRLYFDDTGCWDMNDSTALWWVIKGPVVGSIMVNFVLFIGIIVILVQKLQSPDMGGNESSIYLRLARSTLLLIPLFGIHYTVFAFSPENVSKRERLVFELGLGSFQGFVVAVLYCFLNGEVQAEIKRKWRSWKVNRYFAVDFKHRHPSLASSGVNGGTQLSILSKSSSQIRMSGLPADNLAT
Procedure: as §1, §2, §3, §4, §5, §6, §7, §8, §9, §10

Compound | EC50 (human VPAC2 [1]) [nM] | IC50 (human VPAC2 [2]) [nM] | IC50 (human VPAC1) [nM] | IC50 (human PAC1) [nM]
Hexanoyl-HSDAVFTDNYTRLRKQVAAKKYLQSIKNKRGGPSSGAPPPS [Agonist P123] | 0.12 | 0.26 | 166 | 265
Hexanoyl-HSDAVFTDNYTRLLAKLALQKYLQSIKNKRYGGPSSGAPPPC [Agonist P164] | 0.11 | 2.46 | > 3000 | 9370
Hexanoyl-HSDAVFTDNYTRLRKQVAAKKYLQFIKNKRYGGPSSGAPPPS [Agonist P112] | 0.16 | 0.49 | 193 | 164
CCCCCC(=O)N[C@@H](Cc1c[nH]cn1)C(=O)N[C@@H](CO)C(=O)N[C@@H](CC(=O)O)C(=O)N[C@@H](C)C(=O)N[C@H](C(=O)N[C@@H](Cc1ccccc1)C(=O)N[C@H](C(=O)N[C@@H](CC(=O)O)C(=O)N[C@@H](CC(N)=O)C(=O)N[C@@H](Cc1ccc(O)cc1)C(=O)N[C@H](C(=O)N[C@@H](CCCNC(=N)N)C(=O)N[C@@H](CC(C)C)C(=O)N[C@@H](CCCNC(=N)N)C(=O)N[C@@H](CCCCN)C(=O)N[C@@H](CCC(N)=O)C(=O)N[C@H](C(=O)N[C@@H](C)C(=O)N[C@@H](C)C(=O)N[C@@H](CCC(N)=O)C(=O)N[C@@H](CCCCN)C(=O)N[C@@H](Cc1ccc(O)cc1)C(=O)N[C@@H](CC(C)C)C(=O)N[C@@H](CC(N)=O)C(=O)N[C@@H](CCC(N)=O)C(=O)N[C@@H](CC(C)C)C(=O)N[C@@H](CCCCN)C(=O)N[C@@H](CCCCN)C(=O)NCC(=O)NCC(=O)N1CCC[C@H]1C(=O)N[C@@H](CO)C(=O)N[C@@H](CO)C(=O)NCC(=O)N[C@@H](C)C(=O)N1CCC[C@H]1C(=O)N1CCC[C@H]1C(=O)N1CCC[C@H]1C(=O)N[C@@H](CO)C(=O)O)C(C)C)[C@@H](C)O)[C@@H](C)O)C(C)C [Agonist P144] (Hexanoyl-HSDAVFTDNYTRLRKQVAAQKYLNQLKKGGPSSGAPPPS-OH; C-terminus assumed) | 0.32 | 0.57 | 4.43 | 1180
Hexanoyl-HSDAVFTDNYTRLRKQVAAKKWLQSIKNKRYGGPSSGAPPPS [Agonist P129] | 0.49 | 0.38 | 462 | 678
CC[C@H](C)[C@H](NC(=O)[C@H](CO)NC(=O)[C@H](CCC(N)=O)NC(=O)[C@H](CC(C)C)NC(=O)[C@H](Cc1ccc(O)cc1)NC(=O)[C@H](CCCCN)NC(=O)[C@H](CCCCN)NC(=O)[C@H](C)NC(=O)[C@H](C)NC(=O)[C@@H](NC(=O)[C@H](CCC(N)=O)NC(=O)[C@H](CCCCN)NC(=O)[C@H](CCCNC(=N)N)NC(=O)[C@H](CC(C)C)NC(=O)[C@H](CCCNC(=N)N)NC(=O)[C@@H](NC(=O)[C@H](Cc1ccc(O)cc1)NC(=O)[C@H](CCC(N)=O)NC(=O)[C@H](CC(=O)O)NC(=O)[C@@H](NC(=O)[C@H](Cc1ccccc1)NC(=O)[C@@H](NC(=O)[C@H](C)NC(=O)[C@H](CC(=O)O)NC(=O)[C@H](CO)NC(=O)[C@H](Cc1c[nH]cn1)NC(=O)[C@@H](N)CCSC)C(C)C)[C@@H](C)O)[C@@H](C)O)C(C)C)C(=O)N[C@@H](CCCCN)C(=O)N[C@@H](CCC(N)=O)C(=O)N[C@@H](CCCCN)C(=O)N[C@@H](CCCNC(=N)N)C(=O)N[C@@H](Cc1ccc(O)cc1)C(=O)NCC(=O)NCC(=O)N1CCC[C@H]1C(=O)N[C@@H](CO)C(=O)N[C@@H](CO)C(=O)NCC(=O)N[C@@H](C)C(=O)N1CCC[C@H]1C(=O)N1CCC[C@H]1C(=O)N1CCC[C@H]1C(=O)N[C@@H](CO)C(=O)O [Agonist P100] | 0.28 | 0.4 | 321 | 187
Hexanoyl-HSDAVFTDNYTRLRKQVAAKKYLQSIKNSRGGPSSGAPPPS [Agonist P122] | 0.14 | 0.17 | 77.6 | 304
Hexanoyl-HSDAVFTDNYTRLRKQVAAKKYLQVIKNKRYGGPSSGAPPPS [Agonist P116] | 0.12 | 0.74 | 369 | 145
